Data as given in patent US10800754B2, “Heterocyclic amide compound” (TAKEDA PHARMACEUTICAL COMPANY LIMITED, priority 2016, dated 2020).

Key:
[1] = target: T1, human PRS protein (Homo sapiens, UniProt P07814); assay: PRS inhibitory activity (ATP/[32P]pyrophosphate exchange enzyme reaction); type: biochemical; conditions: 300 nM test compound; recombinant human PRS (EPRS 998-1512); read-out: inhibitory rate (%) of PRS
T1 construct: to construct His-Avi-hEPRS (998-1512) expression plasmid; His tag (N); Avi tag (N); TEV cleavage site (ENLYFQ/GS, encoded by forward primer hEPRS-TEV-NheF) (N); made in house; host or cells: E. coli BL21(DE3)
T1 sequence (P07814 998-1512): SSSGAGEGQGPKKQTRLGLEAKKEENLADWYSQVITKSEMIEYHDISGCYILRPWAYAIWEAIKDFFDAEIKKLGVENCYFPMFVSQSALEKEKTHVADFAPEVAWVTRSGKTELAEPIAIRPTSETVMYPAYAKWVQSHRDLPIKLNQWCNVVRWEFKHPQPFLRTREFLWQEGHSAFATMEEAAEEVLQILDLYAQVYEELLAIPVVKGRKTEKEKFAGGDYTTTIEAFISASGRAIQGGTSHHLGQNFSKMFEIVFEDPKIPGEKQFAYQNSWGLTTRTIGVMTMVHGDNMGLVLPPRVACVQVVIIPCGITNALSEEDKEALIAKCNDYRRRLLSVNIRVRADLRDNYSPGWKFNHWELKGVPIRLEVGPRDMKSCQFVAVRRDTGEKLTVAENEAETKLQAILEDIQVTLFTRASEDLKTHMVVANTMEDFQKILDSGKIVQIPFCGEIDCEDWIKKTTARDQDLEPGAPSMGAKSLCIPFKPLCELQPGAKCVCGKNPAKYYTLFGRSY
Protocol: The PRS inhibitory activity of the compounds of the present invention was evaluated by the following method.
An expression plasmid of Catalytic Domain of human EPRS was obtained by PCR using human skeletal muscle cDNA Library (Takara Bio Inc.) as a template and 2 kinds of Primers 5′-[…]-3′ (hEPRS-TEV-NheF) (SEQ ID NO: 1) and 5′-[…]-3′ (hEPRS-St-Not-R) (SEQ ID NO: 2). PCR was performed using PrimeStar GXL DNA Polymerase (Takara Bio Inc.) and included (1) 98° C., 1 min, (2) cycles of 98° C., 10 sec, 65° C., 10 sec, 72° C., 1 min, and (3) reaction at 72° C., 1 min. This was cleaved with Nhe I and Not I (Takara Bio Inc.) and inserted using Ligation High (TOYOBO CO., LTD.) into the Nhe I/Not I site of pET21a (Novagen) with His-Avitag inserted thereinto. This was introduced into ECOS JM109 (NIPPON GENE CO., LTD.) to construct His-Avi-hEPRS (998-1512) expression plasmid.
Recombinant human PRS protein was prepared by transforming the His-Avi-hEPRS (998-1512) expression plasmid prepared above into ECOS Competent E. coli BL21(DE3) (NIPPON GENE CO., LTD.). Escherichia coli obtained by transformation was inoculated into 300 mL of LB medium (1% peptone, 0.5% yeast extract, 0.5% sodium chloride, 0.01% ampicillin) and cultured at 30° C. for 16 hr. The obtained culture medium was transferred into a jar culture tank charged with 6 L of the main fermentation medium (0.3% potassium dihydrogen phosphate, 0.6% disodium hydrogen phosphate, 0.1% ammonium chloride, 0.05% sodium chloride, 0.024% magnesium sulfate, 0.02% NEWPOL LB-625, 1.5% sorbitol, 1.5% casamino acid, 0.5% yeast extract, 0.01% ampicillin) and culturing was started at 37° C., quantity of airflow 5 L/min, stirring rotating speed 400 rpm. At the time point when the turbidity of the culture medium reached about 550 Klett units, the culture temperature was lowered to 16° C., isopropyl-β-D-thiogalactopyranoside (IPTG) was added to the final concentration 0.1 mM, and culturing was performed for another 16 hr to induce expression of human PRS. After completion of culturing, the culture medium was centrifuged at 5,000 rpm for 10 min. The obtained human PRS expressing Escherichia coli was suspended in a buffer containing 50 mM Tris-HCl (pH 8.0), 150 mM NaCl, 1 mM DTT, 5 U/ml Benzonase, 20 mM Imidazole and sonicated using Sonifier (BRANSON). The homogenate was centrifuged (33,000×G, 60 min, Beckman Coulter), the obtained supernatant was subjected to adsorption by passage through Ni-NTA Superflow (QIAGEN) column equilibrated in advance with 50 mM Tris-HCl (pH 8.0), 300 mM NaCl, 1 mM DTT, and elution was performed with a buffer containing 50 mM Tris-HCl (pH 8.0), 300 mM NaCl, 1 mM DTT, 250 mM Imidazole. Furthermore, gel filtration was performed using […] equilibrated in advance with a buffer containing 50 mM Tris-HCl (pH 8.0), 150 mM NaCl, 1 mM DTT, 10% glycerol to give purified human PRS protein. The protein concentration was measured using BCA Protein Assay Kit (PIERCE) and BSA as the standard.
A test compound was dissolved in 5 μL of an assay buffer (50 mM Tris-HCl (pH 7.5), 20 mM KCl, 1 mM DTT, 0.01% Tween 20) and incubated for 60 min with 5 μL of 40 nM human PRS protein dissolved in the assay buffer containing 40 mM MgCl2. An enzyme reaction of the human PRS protein was started by adding 10 μL of a substrate solution containing 300 μM ATP, 160 μM L-Proline, 400 μM pyrophosphate, [^32P]pyrophosphate (PerkinElmer, Waltham, Mass.) prepared to 1 MBq/mL. After incubation at room temperature for 30 min, the reaction was discontinued by adding 50 μL of discontinuation/washing solution (1M HCl, 200 mM sodium pyrophosphate) to the reaction mixture. The reaction solution was transferred to a filter plate (Merck Millipore, Billerica, Mass.) previously added with 200 μL of charcoal solution (0.5% HCl solution containing 10% charcoal (w/v)). […]

[2] = system: human ovarian cancer cell A2780; assay: proliferation inhibitory activity against A2780 cells (CellTiter-Glo); type: cell-based; conditions: A2780, 72 h, 1 μM test compound, 3 days of culture, read-out: proliferation inhibitory rate (%) of A2780 cells
Protocol: The proliferation inhibitory activity of the compound of the present invention against human ovarian cancer cell A2780 was evaluated by the following method.
Human ovarian cancer cells A2780 were seeded in a 384 well culture plate at 1000 cells in 30 μL of medium per well by using RPMI-1640 medium (Wako Pure Chemical Industries, Ltd.) containing 10% fetal bovine serum and penicillin/streptomycin. The next day, 10 μL of RPMI-1640 medium containing the test compound was added to the cells. After 3 days of culture, 20 μL of CellTiter-Glo Luminescent Cell Viability Assay solution (Promega, Fitchburg, Wis., US) was added. The luminescence signal was measured using EnVision (PerkinElmer, Waltham, Mass., US) and the inhibitory rate (%) of the test compound was calculated with a well free of seeding of cell as 100% inhibition.

SMILES	inhibition at 0.3 µM [1] [%]	inhibition at 1 µM [2] [%]
Cc1cc(N2CC[C@@](C#N)(C3CC3)C2=O)cc(NC(=O)Cc2ccccc2)n1 [Example 20, N-(4-((3S)-3-cyano-3-cyclopropyl-2-oxopyrrolidin-1-yl)-6-methylpyridin-2-yl)-2-phenylacetamide]	94	63
Cn1cc(-c2cccc(CC(=O)Nc3cc(N4CC[C@@](C#N)(C5CC5)C4=O)ccn3)c2)cn1 [Example 26, N-(4-((3S)-3-cyano-3-cyclopropyl-2-oxopyrrolidin-1-yl)pyridin-2-yl)-2-(3-(1-methyl-1H-pyrazol-4-yl)phenyl)acetamide]	100	92
Cc1cc(N2CC[C@@](C#N)(C3CC3)C2=O)cc(NC(=O)Cc2cccc3ccccc23)n1 [Example 27, N-(4-((3S)-3-cyano-3-cyclopropyl-2-oxopyrrolidin-1-yl)-6-methylpyridin-2-yl)-2-(1-naphthyl)acetamide]	97	74
N#C[C@@]1(C2CC2)CCN(c2ccnc(NC(=O)Cc3cccc(-c4ccncc4)c3)c2)C1=O [Example 29, N-(4-((3S)-3-cyano-3-cyclopropyl-2-oxopyrrolidin-1-yl)pyridin-2-yl)-2-(3-(pyridin-4-yl)phenyl)acetamide]	97	60
Cc1cc(N2CC[C@@](C#N)(C3CC3)C2=O)cc(NC(=O)Cc2cccc(-c3cnn(C)c3)c2)n1 [Example 30, N-(4-((3S)-3-cyano-3-cyclopropyl-2-oxopyrrolidin-1-yl)-6-methylpyridin-2-yl)-2-(3-(1-methyl-1H-pyrazol-4-yl)phenyl)acetamide]	99	99
Cn1cc(-c2cc(F)cc(CC(=O)Nc3cc(N4CC[C@@](C#N)(C5CC5)C4=O)ccn3)c2)cn1 [Example 35, N-(4-((3S)-3-cyano-3-cyclopropyl-2-oxopyrrolidin-1-yl)pyridin-2-yl)-2-(3-fluoro-5-(1-methyl-1H-pyrazol-4-yl)phenyl)acetamide]	102	97
CCn1cc(-c2cccc(CC(=O)Nc3cc(N4CC[C@@](C#N)(C5CC5)C4=O)ccn3)c2)cn1 [Example 37, N-(4-((3S)-3-cyano-3-cyclopropyl-2-oxopyrrolidin-1-yl)pyridin-2-yl)-2-(3-(1-ethyl-1H-pyrazol-4-yl)phenyl)acetamide]	99	90
N#C[C@@]1(C2CC2)CCN(c2ccnc(NC(=O)Cc3cccc(-c4cnn(CC(F)F)c4)c3)c2)C1=O [Example 38, N-(4-((3S)-3-cyano-3-cyclopropyl-2-oxopyrrolidin-1-yl)pyridin-2-yl)-2-(3-(1-(2,2-difluoroethyl)-1H-pyrazol-4-yl)phenyl)acetamide]	100	88
Cn1cc(-c2cccc(CC(=O)Nc3cc(N4CC[C@@](C#N)(C5CC5)C4=O)ccn3)c2)ccc1=O [Example 41, N-(4-((3S)-3-cyano-3-cyclopropyl-2-oxopyrrolidin-1-yl)pyridin-2-yl)-2-(3-(1-methyl-6-oxo-1,6-dihydropyridin-3-yl)phenyl)acetamide]	101	72
N#C[C@@]1(C2CC2)CCN(c2ccnc(NC(=O)Cc3cccc(-c4cnn(C5CC5)c4)c3)c2)C1=O [Example 42, N-(4-((3S)-3-cyano-3-cyclopropyl-2-oxopyrrolidin-1-yl)pyridin-2-yl)-2-(3-(1-cyclopropyl-1H-pyrazol-4-yl)phenyl)acetamide]	100	84

Further lines, with some results ahead:

inhibition at 0.3 µM [1] [%]	SMILES	inhibition at 1 µM [2] [%]
100	N#C[C@@]1(C2CC2)CCN(c2ccnc(NC(=O)Cc3cccc(-c4cnn(C(F)F)c4)c3)c2)C1=O [Example 44, N-(4-((3S)-3-cyano-3-cyclopropyl-2-oxopyrrolidin-1-yl)pyridin-2-yl)-2-(3-(1-(difluoromethyl)-1H-pyrazol-4-yl)phenyl)acetamide]	86
97	Cc1ncc(-c2cccc(CC(=O)Nc3cc(N4CC[C@@](C#N)(C5CC5)C4=O)ccn3)c2)s1 [Example 45, N-(4-((3S)-3-cyano-3-cyclopropyl-2-oxopyrrolidin-1-yl)pyridin-2-yl)-2-(3-(2-methyl-1,3-thiazol-5-yl)phenyl)acetamide]	76
99	Cn1cc(-c2cccc(CC(=O)Nc3cc(N4CC[C@@](C#N)(C5CC5)C4=O)ccn3)c2)nn1 [Example 47, N-(4-((3S)-3-cyano-3-cyclopropyl-2-oxopyrrolidin-1-yl)pyridin-2-yl)-2-(3-(1-methyl-1H-1,2,3-triazol-4-yl)phenyl)acetamide]	66
87	N#C[C@@]1(C2CC2)CCN(c2ccnc(NC(=O)Cc3cccc(Cl)c3)n2)C1=O [Example 129, 2-(3-chlorophenyl)-N-(4-((3S)-3-cyano-3-cyclopropyl-2-oxopyrrolidin-1-yl)pyrimidin-2-yl)acetamide]	
84	N#C[C@@]1(C2CC2)CCN(c2ccnc(NC(=O)Cc3ccc(Cl)s3)n2)C1=O [Example 130, 2-(5-chloro-2-thienyl)-N-(4-((3S)-3-cyano-3-cyclopropyl-2-oxopyrrolidin-1-yl)pyrimidin-2-yl)acetamide]	
89	Cc1cc(N2CC[C@@](C#N)(C3CC3)C2=O)nc(NC(=O)Cc2ccccc2)n1 [Example 131, N-(4-((3S)-3-cyano-3-cyclopropyl-2-oxopyrrolidin-1-yl)-6-methylpyrimidin-2-yl)-2-phenylacetamide]	
